Assay results as given in ChEMBL document CHEMBL4706612 (Eur J Med Chem, 2021).

Assays:
[1] = Inhibition of Vibrio parahaemolyticus MetAp1a by Morrison method
[2] = Inhibition of human MetAp1a by Morrison method
[3] = Inhibition of Vibrio cholerae MetAp1a by Morrison method
[4] = Inhibition of Vibrio coralliilyticus MetAp1a by Morrison method

SMILES | Ki [1] [nM] | Ki [2] [nM] | Ki [3] [nM] | Ki [4] [nM]
Oc1nc(-c2ccccn2)nc2c1CSCC2 | 24000 | 760 | 39000 | 7650
Cc1nc(-c2ccccn2)nc(SCC(=O)N2CCOCC2)c1Cl | 12600 | 170 | 7960 | 
Cc1cc(S)nc(-c2ccccn2)n1 | 200 | 150 | 120 | 16200
Cc1cc(Oc2ccc(Cl)cc2)nc(-c2ccccn2)n1 | 350 | 230 | 730 | 
Cc1nc(-c2ccccn2)nc(N(C)c2ccccc2)c1Cl | 240 | 770 | 490 | 
COc1ccc(C(=O)CSc2nc(-c3ccccn3)nc(C)c2Cl)cc1 | 5710 |  | 1430 | 
Cc1nc(-c2ccccn2)nc(SCC(=O)c2ccc(F)cc2)c1Cl | 1900 | 2350 | 1890 | 
Cc1nc(-c2ccccn2)nc(N2CCOCC2)c1Cl | 1620 | 110 | 880 | 
CC(C)S(=O)(=O)c1cnc(-c2ccccn2)nc1N | 35000 | 220 | 60 | 49300
Cc1nc(-c2ccccn2)nc(NCCNc2cccc(C(F)(F)F)n2)c1Cl | 7910 |  | 3560 | 
Cc1nc(-c2ccccn2)nc(NC2CCN(c3ncc(C(F)(F)F)cc3Cl)CC2)c1Cl | 4560 |  | 4780 | 
Cc1nc(-c2ccccn2)nc(N2CCN(c3ncnc4scc(-c5ccccc5)c34)CC2)c1Cl | 1950 |  | 480 | 
Cc1nc(-c2ccccn2)nc(N2CCCN(Cc3ccc(Cl)cc3Cl)CC2)c1Cl | 3230 | 850 | 730 | 
Oc1cc(C(F)(F)F)nc(-c2ccccn2)n1 | 90 | 100 | 150 | 13100
FC(F)(F)c1nc(-c2ccccn2)ncc1-c1nnnn1-c1ccc(Cl)cc1 | 10800 |  |  | 
FC(F)(F)c1cccc(-c2nc(-c3ccccn3)ncc2-c2nnnn2-c2ccccc2)c1 | 2730 | 43900 | 1130 | 
Cc1nc(-c2ccccn2)nc(N2CCN(C)CC2)c1Cl | 480 | 290 | 200 | 
Cc1cc(Oc2cc(Cl)cc(Cl)c2)nc(-c2ccccn2)n1 | 280 | 4210 | 50 | 
Cc1cc(O)nc(-c2ccccn2)n1 | 210 | 620 | 300 | 6800

SMILES | Ki [1] [nM] | Ki [2] [nM] | Ki [3] [nM] | Ki [4] [nM]
CSc1nc(-c2ccccn2)nc(N)c1C#N | 130 | 210 | 680 | 
Cc1nc(-c2ccccn2)nc(O)c1Cc1c(Cl)cccc1Cl | 160 |  | 230 | 10200
Cc1nc(-c2ccccn2)nc(O)c1CC1CC1 | 80 | 130 | 320 | 9290
FC(F)(F)c1cc(Nc2cc(Cl)cc(Cl)c2)nc(-c2ccccn2)n1 | 140 |  | 60 | 
CCCCCc1c(C)nc(-c2ccccn2)nc1O | 3310 | 70 | 720 | 11600
C=CC(C)c1c(O)nc(-c2ccccn2)nc1CCC (centres undefined) | 150 | 80 | 310 | 7240
CCCc1nc(-c2ccccn2)nc(O)c1CC1CC1 | 1130 | 1380 | 70 | 9130
Nc1cc(O)nc(-c2ccccn2)n1 | 240 | 650 | 80 | 11900
CCOC(=O)c1cnc(-c2ccccn2)nc1O | 1420 | 510 | 110 | 5930
CC(=O)Nc1cc(O)nc(-c2ccccn2)n1 | 1110 | 1480 | 90 | 5120
Cc1nc(-c2ccc(C(F)(F)F)cn2)nc(N2CCCCC2)c1Cl |  | 55800 | 4610 | 
Cc1nc(-c2ccc(C(F)(F)F)cn2)nc(Sc2ccc(Cl)cc2)c1Cl | 16200 |  | 6960 | 
c1ccc(-c2ccccn2)nc1 | 2910 | 390 | 2840 | 2830
Cc1nc(-c2ccccn2)nc(N2CCN(CCO)CC2)c1Cl | 3710 |  | 600 | 
Cc1nc(-c2ccccn2)nc(NCCc2ccccc2)c1Cl | 3730 |  | 510 | 
CCN(CC)C(=O)Oc1nc(-c2ccccn2)nc(COC)c1CC1CC1 | 2810 | 450 | 2470 | 
COCc1nc(-c2ccccn2)nc(O)c1CC1CC1 | 250 | 290 | 160 | 27500
CCCc1nc(-c2ccccn2)nc(OC(=O)N(C)C)c1Cc1c(F)cccc1Cl | 600 | 180 | 70 | 
